Test results: patent US6936469B2, “Methods for delivering nucleic acid molecules into cells and assessment thereof” (Chromos Molecular Systems Inc., priority 2001, dated 2005)

How the values were obtained:
A9 cells = experiment: Ultrasound mediated transfection of A9 cells with GFP chromosomes; type: cell-based, murine
Method: (§1) Transfection of the cells was performed as follows. The medium was removed from the cells, and the cells were washed twice with HBSS (Hanks balanced salt solution without Phenol Red (Gibco BRL, UK)) at 37° C. Then 500 μl HBSS at 37° C. was added per well, followed by 10 μl of the freshly prepared vesicle solution (prepared in Example 2) to yield a final concentration of 23.3 nmol/ml.
(§2) Alternatively, the medium was removed from the cells, and the cells were washed twice with HBSS. 500 μl HBSS/lipid solution at 37° C. was added to each well. The HBSS/lipid solution was prepared by adding 1 μl ethanolic lipid solution (prepared as described above) to 500 μl HBSS under vigorous vortexing. The plates were then sealed with parafilm tape and shaken gently at room temperature for 30 min. After incubation, ultrasound was applied at an output energy of 0.5 Watt/cm^2 for 60 sec through the bottom of the plate to the cells. The ultrasound was mediated by an ultrasound gel (Aquasonic 100, Parker, N.J.) between transducer and plate. The ultrasound was applied with an ImaRx Sonoporator 100. Immediately after applying ultrasound one GFP chromosome per seeded cell (2×10^5-5×10^5) (prepared in Example 1) was added. The plate was then sealed again and shaken gently for 1 h at room temperature. […]

CHO-KI cells = experiment: Ultrasound mediated transfection of CHO-KI cells with GFP chromosomes; type: cell-based
Method: Vesicles were prepared at a lipid concentration of 700 nmol/ml lipid (cationic lipid/DOPE 1:1) as follows. In a glass tube (10 ml) 350 nmol cationic lipid (SAINT-2) was mixed with 350 nmol dioleoylphosphatidylethanolamine (DOPE), both solubilized in an organic solvent (Chloroform, Methanol or Chloroform/Methanol 1:1, v/v). Dioleoylphosphatidylethanolamine (DOPE; Avanti Polar Lipids, Alabaster, Ala.) forms inverse hexagonal phases in a membrane and weakens the membrane. Other effectors that may be used are cis-unsaturated phosphatidylethanolamines, cis-unsaturated fatty acids, and cholesterol.
The solvent was evaporated under a stream of nitrogen (15 min/ 250 μl solvent at room temperature). The remaining solvent was removed totally by drying the lipid for 15 min in a desiccator under high vacuum from a vacuum pump. To the dried mixture was added 1 ml ultrapure water. This was vortexed vigorously for about […]. The resulting solution was sonicated in an ultrasonication bath (Laboratory Supplies Inc. NY) until a clear solution was obtained. The resulting suspension contained a population of unilamellar vesicles with a size distribution between 50 to 100 nm.
CHO-KI cells were grown at 37°, 5% CO2, in CHO-S-SFM 2 Medium, (Gibco BRL, Paisley, UK). Between 2×10^5 and 5×10^5 cells were plated onto sterile glass slides in a 12 well plate 24 h before usage.
as §1, §2

Hep-G2 cells = experiment: Ultrasound mediated transfection of Hep-G2 cells with GFP chromosomes; type: cell-based
Method: as §1, §2

[1] = system: V79-4 (Chinese Hamster Lung fibroblast) cells; experiment: Flow cytometry measurement of delivery of IdU labeled ACes with transfection agents; type: cell-based; settings: percentage of transfected cells containing IdU labeled ACes, 1×10^6 ACes complexed with agent, agent dose in microliters per Table 2
Method: All compounds were tested in a Chinese Hamster lung fibroblast line (V79-4, ATCC number CCL-39). Approximately 17 hours (2 cell doublings) prior to transfection, exponentially growing cells were trypsinized and plated at 250,000 cells per well into a 6 well petri dish with Dulbecco's Modified Eagle Medium (Life Technologies, Burlington, ON) and supplemented with 10% FBS (Can Sera, Rexdale ON)). At the time of transfection, the number of cells per well was estimated to be approximately 1 million. For transfection, each individual manufacturer's protocol for complexing to naked DNA was followed, with the exception that the amount of transfection agent used was varied, to reflect the different amount and type of DNA present, as well as the different ionic strength of the complexing. […]
The percentage of transfected cells containing IdUrd-labeled ACes was determined using flow cytometry and collecting FITC fluorescence. Data were accumulated to form bivariate channel distribution showing forward scatter versus green fluorescence (IdUrd-FITC). The fluorescence level at which cells were determined to be positive was established by visual inspection of the histogram of negative control cells such that the gate for the negative cells was set such that 1% appeared in the positive region. […]

[2] = Saint-2/DOPE 1:1, ultrasound 0.5 Watt/cm^2 for 60 sec

Compound | cells remained on the glass after transfection (A9 cells; [2]) | remaining cells positive for green fluorescent protein expression (A9 cells; of the cells remaining on the glass) | cells remained on the glass slide after transfection (CHO-KI cells; Saint-2/DOPE 1:1, ultrasound 0.5 Watt/cm^2 for 60 sec, visual inspection) | GFP positive cells, of original population (CHO-KI cells; after 48 hours) | remaining cells positive for green fluorescent protein expression (CHO-KI cells; after 48 hours, of the cells remaining on the slide) | cells containing an intact artificial chromosome (FISH) (CHO-KI cells; after culturing for two weeks) | cells remained on the glass slide after transfection (Hep-G2 cells; [2]) | remaining cells positive for green fluorescent protein expression (Hep-G2 cells; of the cells remaining on the slide) | DELIVERY % IdU positive (24 hours) [1]
CCCCCCCCC=CCCCCCCCCC(CCCCCCCCC=CCCCCCCCC)c1cc[n+](C)cc1.[Cl-] (stereo not drawn) [Saint-2, 1-methyl-4-(1-octadec-9-enyl-nonadec-10-enylenyl) pyridinium chloride] | 30% | 50% | 30% | 3% | 10% | 1.4% | 30% | 80% | 
CCCCCCCCCCCCCCN=C(CCNCCCCCCCCCCCCCC)NC(C)(C)C [CLONFECTIN, N-t-butyl-N′-tetradecyl-3-tetradecyl-aminopropionamidine] |  |  |  |  |  |  |  |  | 0.61%
